Data as given in patent US20090170923A1, “HCV INHIBITORS” (priority 2004, published 2009).
Where a name gives a salt, the structure may show the parent alone.

Tested on: HCV genotype 1b strain Con1 replicon (ET replicon line, Huh7 cells)
Experiment: HCV ET replicon luciferase assay
Type: cell-based
Conditions: Hepatitis C virus, Huh-7; Huh7 cells stably transfected with HCV genotype 1b Con1 replicon; firefly luciferase readout; 72 hours incubation
Protocol: Compounds of the current invention are believed useful in the treatment and/or prophylaxis of conditions and diseases associated with HcV infection. Activity mediated through HCV was determined using an ET replicon line.
The Materials used include a Medium comprised of DMEM (IX liquid, high glucose); Invitrogen cat #11965-092; 100× Penicillin/Streptomycin solution (10,000 Units/mL); Invitrogen cat #15140-122; 100× Non-essential amino acid solution (10 mM); Invitrogen cat #11140-050; Fetal bovine serum; JRH Biosciences cat #12107-500M; Geneticin (50 mg/mL); Invitrogen cat #10131-035
The Luciferase assay reagents include Steady-Glo Luciferase assay system, cat # E2550 (Promega)
The ET replicon line (see Lohmann et al. (1999), Replication of subgenomic hepatitis C virus RNAs in a hepatoma cell line. Science 285: 110-113; Krieger et al. (2001), Enhancement of hepatitis C virus RNA replication by cell culture-adaptive mutations. J. Virol. 75: 4614-4624; and Vrolijk et al. (2003), A replicon-based bioassay for the measurement of interferons in patients with chronic hepatitis C. J. Virol. Meth. 110: 201-209, each herein incorporated by reference with regard to the ET replicon line), includes Huh7 cells stably transfected with HCV genotype 1b strain Con1 replicon. This replicon expresses the firefly luciferase, has the coding region for ubiquitin inserted upstream of the neomycin gene, and carries three cell culture-adaptive mutations that enhance RNA replication cooperatively (E1202G, T1280I, and S2197P). The ET cell line was obtained under licence from: ReBLikon GmbH, Nach dem alten Schloss 22, 55239 Gau-Odernheim, Germany. […]
Cells are grown to approximately 80% confluency and trypsinised as described above. Cells are counted in a Levy Hemocytometer and diluted to 20,000 cells/ml in DMEM containing 10% FBS, 1× penicillin/streptomycin, 1×NEAAs. […]
245 μL cell suspension is added to the first 11 columns of the daughter plates prepared as above using a Multidrop dispenser (Titertek). […] The twelfth column of each plate is used to generate background readings for the assay. […]

Row | SMILES | IC50 [nM]
1 | C[C@@H](N[C@@H]1CCCc2c1[nH]c1ccc(Br)cc21)c1ccccc1 [Example 31, (1R)-6-bromo-N-[(1R)-1-phenylethyl]-2,3,4,9-tetrahydro-1H-carbazol-1-amine Hydrochloride Salt] | 13
2 | C[C@H](N[C@@H]1CCCc2c1[nH]c1ccc(Br)cc21)c1ccccc1 [Example 36, (1R)-6-Bromo-N-[(1S)-1-phenylethyl]-2,3,4,9-tetrahydro-1H-carbazol-1-amine Hydrochloride Salt] | 8
3 | Brc1ccc2[nH]c3c(c2c1)CCC[C@H]3NC1Cc2ccccc2C1 [Example 27, (1R)-6-Bromo-N-(2,3-dihydro-1H-inden-2-yl)-2,3,4,9-tetrahydro-1H-carbazol-1-amine hydrochloride salt] | 54
